Each structure is given as a SMILES string.

In test [1] the target is T1, 125I-BH-eledoisin binding sites in rat brain cortex membranes (Rattus norvegicus, UniProt P16177).
T1 construct: from tissue; host or cells: rat brain cortex membranes
T1 sequence (P16177 1-452): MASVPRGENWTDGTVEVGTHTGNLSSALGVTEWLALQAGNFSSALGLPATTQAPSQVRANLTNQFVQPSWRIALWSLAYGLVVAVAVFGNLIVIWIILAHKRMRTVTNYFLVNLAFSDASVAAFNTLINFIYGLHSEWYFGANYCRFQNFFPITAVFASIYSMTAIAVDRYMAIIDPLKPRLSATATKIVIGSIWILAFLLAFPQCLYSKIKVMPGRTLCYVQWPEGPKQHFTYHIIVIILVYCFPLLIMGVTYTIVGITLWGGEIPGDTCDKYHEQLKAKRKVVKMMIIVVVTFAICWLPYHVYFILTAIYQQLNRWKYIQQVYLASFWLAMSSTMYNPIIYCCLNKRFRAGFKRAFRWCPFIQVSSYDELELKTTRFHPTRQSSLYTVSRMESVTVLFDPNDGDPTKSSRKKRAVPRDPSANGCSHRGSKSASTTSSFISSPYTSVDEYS
As to the kind of experiment: eledoisin binding assay (competition for 125I-BH-eledoisin binding sites). To be noted: peptides dissolved in DMSO. The protocol:
(§1) Representative compounds of this invention were tested in the substance P (SP) and eledoisin binding assays. The peptides were dissolved in DMSO and tested for their abilities to compete for ^125 I-BH-SP and ^125 I-BH-eledoison binding sites in rat brain cortex membranes (Cascieri and Liang, J. Biol. Chem., 258, 5158 (1983); Life Sciences, 35, 179 (1984)).
(§2) The following table summarizes the IC50 data obtained in both assay systems as well as showing the IC50 ratio for each peptide in the SP and eledoisin binding assays.

Test [2] deals with T2, 125I-BH-SP binding sites in rat brain cortex membranes (Rattus norvegicus, UniProt P14600).
T2 construct: from tissue; host or cells: rat brain cortex membranes
T2 sequence (P14600 whole entry): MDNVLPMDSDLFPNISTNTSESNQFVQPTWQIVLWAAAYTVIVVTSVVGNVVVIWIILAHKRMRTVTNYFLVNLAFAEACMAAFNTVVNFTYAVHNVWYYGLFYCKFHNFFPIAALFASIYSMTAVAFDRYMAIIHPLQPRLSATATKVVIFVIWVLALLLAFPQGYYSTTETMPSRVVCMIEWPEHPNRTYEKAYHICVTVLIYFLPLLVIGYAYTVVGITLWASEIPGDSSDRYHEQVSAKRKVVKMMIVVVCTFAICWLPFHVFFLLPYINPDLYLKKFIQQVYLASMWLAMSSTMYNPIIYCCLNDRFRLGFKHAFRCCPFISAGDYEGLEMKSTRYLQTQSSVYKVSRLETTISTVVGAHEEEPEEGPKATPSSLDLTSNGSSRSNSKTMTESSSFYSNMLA
As to the kind of experiment: substance P (SP) binding assay (competition for 125I-BH-SP binding sites). Conditions: peptides dissolved in DMSO. The protocol: as §1, §2

As to `CSCC[C@H](NC(=O)[C@H](CC(C)C)N1CC[C@H](NC(=O)[C@H](Cc2ccccc2)NC(=O)[C@H](Cc2ccccc2)NC(=O)[C@@H]2CCC(=O)N2)C1=O)C(N)=O` [L-363,232], the results for the IC50 in test [1] and in test [2] were 32 µM and 60 µM, respectively.

Regarding `CSCC[C@H](NC(=O)[C@H](CC(C)C)N1CC[C@@H](NC(=O)[C@H](Cc2ccccc2)NC(=O)[C@H](Cc2ccccc2)NC(=O)[C@@H]2CCC(=O)N2)C1=O)C(N)=O` [L-363,851, Pyroglutamyl-phenylalanyl-phenylalanyl-[(R)-3-amino-2-oxo-1-pyrrolidine-(S)-4-methyl-2-pentanoyl]-methionine amide], the results for the IC50 in test [1] and in test [2] were 0.014 µM and 13 µM, respectively.

The values are drawn from patent publication US4680283A, “Analogs of substance P and eledoisin” (Merck & Co., Inc., priority 1986, dated 1987).
